The supplement of paper PMC11061612

Columns and labels:
Assay in all cases: combination Emax (second highest fraction inhibited in the dose matrix, 72 h); higher = more inhibition; extreme values may be limits of the assay
U251 (Low Grade Glioma) = tested on: U251 (Low Grade Glioma)
In short: (§1)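 Bliss excess equals the observed combination effect minus the expected value EA + EB − EA·EB, where EA and EB are the effects of each agent alone. Combination Emax is the second-highest inhibition within the matrix. Inhibition was scaled from CellTiter-Glo 2.0 luminescence, with 0 set by vehicle wells and 1 by blank wells, after 72 hours of two-drug dosing of cells plated in 1536-well plates.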

NCI-H2818 (Mesothelioma) = tested on: NCI-H2818 (Mesothelioma)
In short: as §1

[1] = tested on: COLO-678 (Colorectal Carcinoma)
In short: as §1

TC-71 (Ewing's Sarcoma) = tested on: TC-71 (Ewing's Sarcoma)
In short: as §1

WIL2-NS (Non-Cancerous) = tested on: WIL2-NS (Non-Cancerous)
In short: as §1

[2] = tested on: TOV-112D (Ovarian Carcinoma)
In short: as §1

[3] = tested on: P12-ICHIKAWA (T-Lymphoblastic Leukemia)
In short: as §1

[4] = tested on: MFM-223 (Breast Carcinoma)
In short: as §1

LN-18 (Glioblastoma) = tested on: LN-18 (Glioblastoma)
In short: as §1

[5] = tested on: KYSE-180 (Esophageal Squamous Cell Carcinoma)
In short: as §1

[6] = tested on: SW1417 (Colorectal Carcinoma)
In short: as §1

[7] = tested on: EVSA-T (Breast Carcinoma)
In short: as §1

[8] = tested on: DND-41 (T-Lymphoblastic Leukemia)
In short: as §1

MEL-JUSO (Melanoma) = tested on: MEL-JUSO (Melanoma)
In short: as §1

[9] = tested on: PANC-08-13 (Pancreatic Carcinoma)
In short: as §1

[10] = tested on: BFTC-905 (Bladder Carcinoma)
In short: as §1

[11] = tested on: KCL-22 (Chronic Myelogenous Leukemia)
In short: as §1

ES1 (Ewing's Sarcoma) = tested on: ES1 (Ewing's Sarcoma)
In short: as §1

[12] = tested on: L-540 (Hodgkin's Lymphoma)
In short: as §1

[13] = tested on: MOLT-16 (T-Lymphoblastic Leukemia)
In short: as §1

Structure (SMILES)	combination Emax (U251 (Low Grade Glioma))	combination Emax (NCI-H2818 (Mesothelioma))	combination Emax [1]	combination Emax (TC-71 (Ewing's Sarcoma))	combination Emax (WIL2-NS (Non-Cancerous))	combination Emax [2]	combination Emax [3]	combination Emax [4]	combination Emax (LN-18 (Glioblastoma))	combination Emax [5]	combination Emax [6]	combination Emax [7]	combination Emax [8]	combination Emax (MEL-JUSO (Melanoma))	combination Emax [9]	combination Emax [10]	combination Emax [11]	combination Emax (ES1 (Ewing's Sarcoma))	combination Emax [12]	combination Emax [13]
CC1(C)CCC(CN2CCN(c3ccc(C(=O)NS(=O)(=O)c4ccc(NCC5CCOCC5)c([N+](=O)[O-])c4)c(Oc4cnc5[nH]ccc5c4)c3)CC2)=C(c2ccc(Cl)cc2)C1 [Venetoclax] + C[C@@H]1COCCN1C2=NC(=NC(=C2)C3(CC3)[S@](=N)(=O)C)C4=C5C=CNC5=NC=C4 [AZD6738] (first compound max 1 µM, 7x7, partner max 10 µM)	0.518	0.394	0.164	0.954	0.997	0.656	0.986	0.752	0.745	0.638	0.391	0.378	0.987	0.483	0.421	0.835	0.951	0.942	0.959	1
CN(CCO)CC[C@H](CSc1ccccc1)Nc1ccc(S(=O)(=O)NC(=O)c2ccc(N3CCC([C@@H](O)c4ccccc4-c4ccc(Cl)cc4)CC3)cc2)cc1S(=O)(=O)C(F)(F)F [AZD4320] + Cc1cc2ncnn2cc1Nc1ncc2c(n1)n(C1CCOCC1)c(=O)n2C [AZD7648] (first compound max 1 µM, 7x7, partner max 10 µM)	0.118	0.364	0.105	0.593	0.335	0.318	1	0.223	0.204	0.0754	0.798	0.191	1	0.181	0.391	0.117	0.462	0.355	0.502	1
NC1(C(=O)N[C@@H](CCO)c2ccc(Cl)cc2)CCN(c2ncnc3[nH]ccc23)CC1 [Capivasertib] + CCN(CCO)CCCOc1ccc2c(Nc3cc(CC(=O)Nc4cccc(F)c4)[nH]n3)ncnc2c1 [AZD2811] (first compound max 10 µM, 7x7, partner max 1 µM)	0.444	0.294	0.222	0.854	0.641	0.42	1	0.918	0.597	0.51	0.278	0.979	0.224	0.274	0.329	0.428	0.472	0.905	0.361	1
Cc1c2c(nn1C)CSCc1cc(n(C)n1)CSc1cc(c3ccccc3c1)OCCCc1c(C(=O)O)n(C)c3c-2c(Cl)ccc13 [AZD5991] + CCN(CCO)CCCOc1ccc2c(Nc3cc(CC(=O)Nc4cccc(F)c4)[nH]n3)ncnc2c1 [AZD2811] (first compound max 1 µM, 7x7, partner max 1 µM)	0.423	0.287	0.227	0.848	0.339	0.868	1	0.574	0.701	0.942	0.23	1	0.21	0.592	0.281	0.794	0.921	0.983	1	1
Cc1c2c(nn1C)CSCc1cc(n(C)n1)CSc1cc(c3ccccc3c1)OCCCc1c(C(=O)O)n(C)c3c-2c(Cl)ccc13 [AZD5991] + C=CCn1c(=O)c2cnc(Nc3ccc(N4CCN(C)CC4)cc3)nc2n1-c1cccc(C(C)(C)O)n1 [AZD1775] (first compound max 1 µM, partner max 1 µM)	0.423	0.519	0.391	0.578	0.963	0.714	1	0.562	0.602	0.95	0.542	1	0.875	0.749	0.379	0.673	0.969		1	1
CC1(C)CCC(CN2CCN(c3ccc(C(=O)NS(=O)(=O)c4ccc(NCC5CCOCC5)c([N+](=O)[O-])c4)c(Oc4cnc5[nH]ccc5c4)c3)CC2)=C(c2ccc(Cl)cc2)C1 [Venetoclax] + CCN(CCO)CCCOc1ccc2c(Nc3cc(CC(=O)Nc4cccc(F)c4)[nH]n3)ncnc2c1 [AZD2811] (first compound max 1 µM, 7x7, partner max 1 µM)	0.274	0.251	0.245	0.88	0.857	0.266	1	0.252	0.488	0.233	0.209	0.427	0.94	0.287	0.212	0.354	0.376	0.759	0.723	1
CC1(C)CCC(CN2CCN(c3ccc(C(=O)NS(=O)(=O)c4ccc(NCC5CCOCC5)c([N+](=O)[O-])c4)c(Oc4cnc5[nH]ccc5c4)c3)CC2)=C(c2ccc(Cl)cc2)C1 [Venetoclax] + Cc1cc2ncnn2cc1Nc1ncc2c(n1)n(C1CCOCC1)c(=O)n2C [AZD7648] (first compound max 1 µM, 7x7, partner max 10 µM)	0.202	0.352	0.16	0.262	0.77	0.315	0.298	0.161	0.378	0.142	0.25	0.305	0.885	0.183	0.218	0.207	0.159	0.46	0.787	0.855
CN(CCO)CC[C@H](CSc1ccccc1)Nc1ccc(S(=O)(=O)NC(=O)c2ccc(N3CCC([C@@H](O)c4ccccc4-c4ccc(Cl)cc4)CC3)cc2)cc1S(=O)(=O)C(F)(F)F [AZD4320] + C[C@@H]1COCCN1C2=NC(=NC(=C2)C3(CC3)[S@](=N)(=O)C)C4=C5C=CNC5=NC=C4 [AZD6738] (first compound max 1 µM, 7x7, partner max 10 µM)	0.534	0.567	0.11	1	0.985	0.729	1	0.842	0.847	0.747		0.213	1	0.642	0.636	0.926	0.976	0.942	0.969	1
CC(=O)c1c(C)c2cnc(Nc3ccc(N4CCNCC4)cn3)nc2n(C2CCCC2)c1=O [Palbociclib] + Cn1cnc2c(F)c(Nc3ccc(Br)cc3Cl)c(C(=O)NOCCO)cc21 [Selumetinib] (first compound max 10 µM, 7x7, partner max 10 µM)	0.297	0.208	0.525	0.396	0.74	0.473	0.77	0.317	0.359	0.203	0.512	0.287	0.489	0.425	0.221	0.746	0.569	0.616	0.25	0.827
C[C@@H](c1ccc2nccn2c1)n1nnc2ncc(-c3cnn(C)c3)nc21 [Savolitinib] + CN(CC[C@H](CSC1=CC=CC=C1)NC2=C(C=C(C=C2)S(=O)(=O)NC(=O)C3=CC=C(C=C3)N4CCC(CC4)[C@H](C5=CC=CC=C5C6=CC=C(C=C6)Cl)O)S(=O)(=O)C(F)(F)F)CCO [AZD4320] (first compound max 1 µM, 7x7, partner max 1 µM)	0.176		0.226	0.585		0.0682	1	0.225	0.163	0.13		0.248		0.257	0.394		0.268			1
C[C@@H](c1ccc2nccn2c1)n1nnc2ncc(-c3cnn(C)c3)nc21 [Savolitinib] + CC1(C)CCC(CN2CCN(c3ccc(C(=O)NS(=O)(=O)c4ccc(NCC5CCOCC5)c([N+](=O)[O-])c4)c(Oc4cnc5[nH]ccc5c4)c3)CC2)=C(c2ccc(Cl)cc2)C1 [Venetoclax] (first compound max 1 µM, 7x7, partner max 1 µM)	0.116	0.127	0.146	0.119	0.163	0.0298	0.188	0.0596	0.146	0.134	0.126	0.201	0.233	0.126	0.109	0.164	0.137	0.113	0.246	0.58
CC(=O)c1c(C)c2cnc(Nc3ccc(N4CCNCC4)cn3)nc2n(C2CCCC2)c1=O [Palbociclib] + CN(CC[C@H](CSC1=CC=CC=C1)NC2=C(C=C(C=C2)S(=O)(=O)NC(=O)C3=CC=C(C=C3)N4CCC(CC4)[C@H](C5=CC=CC=C5C6=CC=C(C=C6)Cl)O)S(=O)(=O)C(F)(F)F)CCO [AZD4320] (first compound max 10 µM, 7x7, partner max 1 µM)	0.294		0.354	0.828		0.584	1	0.406	0.517	0.462		0.444		0.356	0.384		0.82			1
